According to US8193189B2, “Quinoxaline derivatives as tyrosine kinase activity inhibitors” (Novartis AG, priority 2007, dated 2012):
pIC50: −log10 of the molar value.

Columns and labels:
Type in all cases: biochemical
GST-JAK2(808-1132) = molecular target: T1, GST-JAK2(808-1132) (Homo sapiens, UniProt O60674); assay: EPK JAK-family kinases profiling assay (Caliper mobility shift), JAK2; settings: ATP 20 μM, 1.8 nM kinase
T1 construct: GST-JAK2(808-1132); purchased Invitrogen (Carlsbad, USA) #4288
Excerpt: (§1) All four kinases of the JAK-family kinases were used as purified recombinant GST-fusion proteins, containing the active kinase domains. GST-JAK1(866-1154), GST-JAK3(811-1124), and GST-TYK2(888-1187) were expressed and purified by affinity chromatography at the EPK biology unit. GST-JAK2(808-1132) was purchased from Invitrogen (Carlsbad, USA, #4288).
(§2) The kinase assays were based on the Caliper mobility shift assay using the LabChip 3000 systems. This technology is similar to capillary electrophoresis and uses charge driven separation of substrate and product in a microfluidic chip.
(§3) All kinase reactions were performed in 384 well microtiter plates in a total reaction volume of 18 μl. The assay plates were prepared with 0.1 μl per well of test compound in the appropriate test concentration, as described under the section “preparation of compound dilutions”. The reactions were started by combining 9 μl of substrate mix (consisting of peptide and ATP) with 9 μl of kinase dilution. The reactions were incubated for 60 minutes at 30° C. and stopped by adding 70 μl of stop buffer (100 mM Hepes, 5% DMSO, 0.1% Coating reagent, 10 mM EDTA, 0.015% Brij 35).
(§4) Fluorescently labeled synthetic peptides were used as substrates in all reactions. […] Specific assay conditions are described in Table 1:
(§5) The terminated reactions were transferred to the Caliper LabChip 3000 reader and the turnover of each reaction was measured by determining the substrate/product ratio.
(§6) Test compounds were dissolved in DMSO (10 mM) and transferred into 1.4 mL flat bottom or V-shaped Matrix tubes carrying a unique 2D matrix chip by individual compound hubs. The numbers of these chips were distinctively linked to the individual compound identification numbers. The stock solutions were stored at −20° C. if not used immediately. For the test procedure the vials were defrosted and identified by a scanner whereby a working sheet was generated that guided the subsequent working steps.
(§7) Compound dilutions were made in 96 well plates. This format enabled the assay of maximally 40 individual test compounds at 8 concentrations (single points) including 4 reference compounds. The dilution protocol included the production of pre-dilution plates, master plates and assay plates:
(§8) Pre-dilution plates: 96 polypropylene well plates were used as pre-dilution plates. A total of 4 pre-dilution plates were prepared including 10 test compounds each on the plate positions A1-A10, one standard compound at A11 and one DMSO control at A12. All dilution steps were done on a HamiltonSTAR robot.
(§9) Master plates: 100 μL of individual compound dilutions including standard compound and controls of the 4 “pre-dilution plates” were transferred into a 384 “master plate” including the following concentrations 1′820, 564, 182, 54.6, 18.2, 5.46, 1.82 and 0.546 μM, respectively in 90% of DMSO.
(§10) Assay plates: Identical assay plates were then prepared by pipetting 100 nL each of compound dilutions of the master plates into 384-well “assay plates”. […] The preparation of the master plates were handled by the Matrix PlateMate Plus robot and replication of assay plates by the HummingBird robot.

GST-JAK3(811-1124) = molecular target: T2, GST-JAK3(811-1124) (Homo sapiens, UniProt P52333); assay: EPK JAK-family kinases profiling assay (Caliper mobility shift), JAK3; settings: ATP 80 μM, 6 nM kinase
T2 construct: GST-JAK3(811-1124); made in house
Excerpt: as §1, §2, §3, §4, §5, §6, §7, §8, §9, §10

GST-JAK1(866-1154) = molecular target: T3, GST-JAK1(866-1154) (Homo sapiens, UniProt P23458); assay: EPK JAK-family kinases profiling assay (Caliper mobility shift), JAK1; settings: ATP 40 μM, 50 nM kinase
T3 construct: GST-JAK1(866-1154); made in house
Excerpt: as §1, §2, §3, §4, §5, §6, §7, §8, §9, §10

T3 sequence (P23458 866-1154): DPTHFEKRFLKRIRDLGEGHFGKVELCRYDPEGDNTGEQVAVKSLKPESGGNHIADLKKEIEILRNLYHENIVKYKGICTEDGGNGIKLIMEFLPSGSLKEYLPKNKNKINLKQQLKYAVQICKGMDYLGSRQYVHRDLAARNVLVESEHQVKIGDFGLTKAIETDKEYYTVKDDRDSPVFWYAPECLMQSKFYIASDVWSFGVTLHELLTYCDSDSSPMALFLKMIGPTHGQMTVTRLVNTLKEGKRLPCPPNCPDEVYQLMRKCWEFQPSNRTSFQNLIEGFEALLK
T1 sequence (O60674 808-1132): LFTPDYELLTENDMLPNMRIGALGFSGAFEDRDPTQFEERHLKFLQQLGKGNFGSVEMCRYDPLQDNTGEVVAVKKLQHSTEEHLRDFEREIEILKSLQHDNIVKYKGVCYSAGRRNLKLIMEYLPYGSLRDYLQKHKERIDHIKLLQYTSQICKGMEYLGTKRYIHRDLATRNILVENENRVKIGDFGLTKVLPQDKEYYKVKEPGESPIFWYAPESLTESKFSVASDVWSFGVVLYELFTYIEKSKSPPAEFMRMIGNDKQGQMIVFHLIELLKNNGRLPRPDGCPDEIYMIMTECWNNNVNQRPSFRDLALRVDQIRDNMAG
T2 sequence (P52333 811-1124): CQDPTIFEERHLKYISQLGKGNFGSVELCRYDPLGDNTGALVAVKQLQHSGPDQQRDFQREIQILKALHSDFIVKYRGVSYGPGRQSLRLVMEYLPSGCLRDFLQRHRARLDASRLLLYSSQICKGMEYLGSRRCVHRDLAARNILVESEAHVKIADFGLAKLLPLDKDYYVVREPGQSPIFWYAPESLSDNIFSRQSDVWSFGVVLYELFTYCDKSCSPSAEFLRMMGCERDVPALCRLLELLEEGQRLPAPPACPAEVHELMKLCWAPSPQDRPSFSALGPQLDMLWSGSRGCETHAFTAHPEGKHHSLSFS

Row | pIC50 (GST-JAK2(808-1132)) | pIC50 (GST-JAK3(811-1124)) | pIC50 (GST-JAK1(866-1154)) | Compound
1 | 6.92 | 5.27 | – | COc1cc(-c2cnc3cccc(-c4ccc(S(C)(=O)=O)cc4)c3n2)cc(OC)c1OC [Example 2, 8-(4-Methanesulfonyl-phenyl)-2-(3,4,5-trimethoxy-phenyl)-quinoxaline]
2 | 6.66 | < 5.00 | – | COc1cc(-c2cnc3cccc(-c4ccc(S(=O)(=O)C(C)C)cc4)c3n2)cc(OC)c1OC [Example 4, 8-[4-(Propane-2-sulfonyl)-phenyl]-2-(3,4,5-trimethoxy-phenyl)-quinoxaline]
3 | 6.77 | < 5.00 | – | CNC(=O)c1ccc(-c2cccc3ncc(-c4cc(OC)c(OC)c(OC)c4)nc23)cc1 [Example 9, N-Methyl-4-[3-(3,4,5-trimethoxy-phenyl)-quinoxalin-5-yl]-benzamide]
4 | 7.28 | < 5.00 | 6.74 | COc1cc(-c2cnc3cccc(-c4ccc(NS(C)(=O)=O)cc4)c3n2)cc(OC)c1OC [Example 12, N-{4-[3-(3,4,5-Trimethoxy-phenyl)-quinoxalin-5-yl]-phenyl}-methanesulfonamide]
5 | 7.72 | – | – | COc1cc(-c2cnc3cccc(-c4ccc(C(=O)N5CCOCC5)c(C)c4)c3n2)cc(OC)c1OC [Example 16, {2-Methyl-4-[3-(3,4,5-trimethoxy-phenyl)-quinoxalin-5-yl]-phenyl}-morpholin-4-yl-methanone]
6 | – | – | 5.74 | COc1cc(-c2cnc3cccc(-c4ccc(CN5CCOCC5)c(C)c4)c3n2)cc(OC)c1OC [Example 21, 8-(3-Methyl-4-morpholin-4-ylmethyl-phenyl)-2-(3,4,5-trimethoxy-phenyl)-quinoxaline]
7 | 6.70 | < 5.00 | – | COc1ccc(-c2cnc3cccc(-c4ccc(S(C)(=O)=O)cc4)c3n2)cc1OC [Example 23, 2-(3,4-Dimethoxy-phenyl)-8-(4-methanesulfonyl-phenyl)-quinoxaline]
8 | 6.72 | < 5.00 | – | CCS(=O)(=O)c1ccc(-c2cccc3ncc(-c4cccc(NS(C)(=O)=O)c4)nc23)cc1 [Example 39, N-{3-[8-(4-Ethanesulfonyl-phenyl)-quinoxalin-2-yl]-phenyl}-methanesulfonamide]
9 | 7.42 | < 5.00 | – | CCS(=O)(=O)c1ccc(-c2cccc3ncc(-c4ccc(OCCOC)c(OC)c4)nc23)cc1 [Example 47]
10 | 6.28 | < 5.00 | – | COc1cc(-c2cnc3cc(C)cc(-c4ccc(C(=O)N5CCOCC5)cc4)c3n2)cc(OC)c1OC [Example 79, {4-[7-Methyl-3-(3,4,5-trimethoxy-phenyl)-quinoxalin-5-yl]-phenyl}-morpholin-4-yl-methanone]

Second part, the compound before the results:

Row | Compound | pIC50 (GST-JAK2(808-1132)) | pIC50 (GST-JAK3(811-1124)) | pIC50 (GST-JAK1(866-1154))
11 | COc1cc(-c2cnc3cccc(-c4ccc(C(=O)N5CCOCC5)cc4F)c3n2)cc(OC)c1OC [Example 1, {3-Fluoro-4-[3-(3,4,5-trimethoxy-phenyl)-quinoxalin-5-yl]-phenyl}-morpholin-4-yl-methanone] | 7.09 | 5.36 | –
12 | COc1cc(-c2cnc3cccc(-c4ccc(S(N)(=O)=O)cc4)c3n2)cc(OC)c1OC [Example 5, 4-[3-(3,4,5-Trimethoxy-phenyl)-quinoxalin-5-yl]-benzenesulfonamide] | 6.96 | < 5.00 | –
13 | CCNS(=O)(=O)c1ccc(-c2cccc3ncc(-c4cc(OC)c(OC)c(OC)c4)nc23)cc1 [Example 7, N-Ethyl-4-[3-(3,4,5-trimethoxy-phenyl)-quinoxalin-5-yl]-benzenesulfonamide] | 7.02 | 5.07 | –
14 | COc1cc(-c2cnc3cccc(-c4ccc(S(=O)(=O)N(C)C)cc4)c3n2)cc(OC)c1OC [Example 8, N,N-Dimethyl-4-[3-(3,4,5-trimethoxy-phenyl)-quinoxalin-5-yl]-benzenesulfonamide] | 6.96 | < 5.00 | –
15 | COc1cc(-c2cnc3cccc(-c4ccc(CC(=O)N5CCOCC5)cc4)c3n2)cc(OC)c1OC [Example 11, 1-Morpholin-4-yl-2-{4-[3-(3,4,5-trimethoxy-phenyl)-quinoxalin-5-yl]-phenyl}-ethanone] | 8.05 | – | 7.41
16 | COc1cc(-c2cnc3cccc(-c4ccc(CN5CCOCC5)cc4)c3n2)cc(OC)c1OC [Example 15, 8-(4-Morpholin-4-ylmethyl-phenyl)-2-(3,4,5-trimethoxy-phenyl)-quinoxaline] | – | < 5.00 | –
17 | COc1cc(-c2cnc3cccc(-c4ccc(CN5CCS(=O)(=O)CC5)cc4)c3n2)cc(OC)c1OC [Example 19, 8-[4-(1,1-Dioxido-thiomorpholin-4-ylmethyl)-phenyl]-2-(3,4,5-trimethoxy-phenyl)-quinoxaline] | – | – | 7.23
18 | COc1cc(-c2cnc3cccc(-c4ccc(CN5CCOCC5)c(F)c4)c3n2)cc(OC)c1OC [Example 20, 8-(3-Fluoro-4-morpholin-4-ylmethyl-phenyl)-2-(3,4,5-trimethoxy-phenyl)-quinoxaline] | 7.62 | – | 6.80
19 | CS(=O)(=O)Nc1cccc(-c2cnc3cccc(-c4ccc(CC(=O)N5CCOCC5)cc4)c3n2)c1 [Example 38, N-(3-{8-[4-(2-Morpholin-4-yl-2-oxo-ethyl)-phenyl]-quinoxalin-2-yl}-phenyl)-methanesulfonamide] | 7.64 | 5.38 | –
20 | CCS(=O)(=O)c1ccc(-c2cccc3ncc(-c4ccc(O)c(OC)c4)nc23)cc1 [Example 77, 4-[8-(4-Ethanesulfonyl-phenyl)-quinoxalin-2-yl]-2-methoxy-phenol] | 6.89 | 5.01 | –
